Measured values from patent publication US8796249B2, “TGR5 modulators and methods of use thereof” (Intercept Pharmaceuticals, Inc., priority 2008, dated 2014).

Legend:
C57BL6J mice = experiment: Diet-induced obesity mouse model; format: in vivo
Method: The goal of the study was to assess the therapeutic potency of compound 3A in a mouse model of diet-induced obesity. Compound 3A was administered via food administration for 16 weeks to male C57BL6J mice that were previously subjected for 10 weeks to a high fat diet.
For this study, male C57BL6J mice (5 weeks of age) were divided in 2 groups: one group of animals received chow diet to control the onset of obesity, one group of animals received a high fat diet. Compound 3A was tested on the animals that received the high fat diet (HFD). The animals are then analyzed during a period of 13 weeks. The groups were as follows: • 1: chow diet • 2: high fat diet • 3: high fat diet+3A • During the entire study, body weight and food intake were monitored twice weekly. • The period for the onset of obesity was 10 weeks. At the end of the 10 weeks, body composition was analyzed by dual energy X-ray absorptiometry (dexascan) and serum levels of transaminases, glucose, triglycerides, cholesterol, HDL-C, LDL-C and insulin were measured. […]
The Dexa analyses were performed by the ultra high resolution PIXIMUS Series Densitometer (0.18×0.18 mm pixels, GE Medical Systems, Madison, Wis., USA). Bone mineral density (BMD in g/cm^2) and body composition were determined by using the PIXIMUS software (version 1.4×, GE Medical Systems). […]

[1] = Critical micellar concentration by surface tension (maximum bubble-pressure method); format: physicochemical
Method: The critical micellar concentration (CMC) was determined by surface tension (ST) measurements using a maximum bubble-pressure method which give surface tension values slightly affected by potential impurities like static methods are. The tensiometer was a […] Research Corp., Milwaukee, Wis.) equipped with two glass probes of 0.5 and 4.0 mm diameters connected to a source of nitrogen. The bubble frequency was 1 bubble/second in distilled water at 26° C. (P=2.7 atm) and the calibration was made with double-distilled water and methanol. The surface tension of BA sodium salts solutions in NaCl 0.15 M was measured at various concentrations inside the 0.13-50 mM range. The surface tension values were plotted against the logarithm of the bile salt concentration; the regression lines corresponding to the two parts of the curve (monomeric and micellar phases) were calculated using the method of least squares, and the intersection of the lines was taken as the CMC value. From the ST vs concentration curves the value of the surface tension at the CMC (equilibrium between monomers and multimers species) was also calculated giving information about the detergency power which is related to the size of the micelles with associate surface tension lowering capacity. The CMC was evaluated by surface tension measurements in non equilibrium conditions i.e. in conditions that impurities slightly affect the surface tension results (FIG. 1).

CC[C@H]1[C@@H](O)[C@@H]2[C@H](C[C@H](O)[C@]3(C)[C@@H]([C@H](C)CCCS(=O)(=O)[O-])CC[C@@H]23)[C@@]2(C)CC[C@@H](O)C[C@@H]12.[Na+] [Compound 3A, 3α,7α,12α-trihydroxy-6α-ethyl-5β-cholan-24-sulfonate Sodium Salt]
body weight gain (C57BL6J mice; HF-fed mice, compound in food, 0-9 weeks (FIG. 8)): blunted
fat gain (body composition) (C57BL6J mice; HFD mice, 5 weeks after treatment (FIG. 9)): reduces fat gain
surface tension lowering capacity ([1]; NaCl […]): high surface tension lowering capacity
CMC […] Na+ ([1]; […] NaCl water solution): 2.8 mM
STCMC (surface tension at CMC) ([1]; […] NaCl water solution): 43.4 Dyne/cm
